Assay results: article PMC12440775 (Frontiers in Pharmacology, 2025)
“Also recorded” adds a separate entry of the source. Marks after values point to notes of the source that are not given here.

Key:
CYP3A4 = conditions: therapeutic dose of 120 mg QD; cited from earlier work
[1] = Safety and tolerability, food effect part (Part 2); assay type: in vivo, human
Method: (§1) Six volunteers received the active drug at each dose level dissolved in a polyethylene glycol (PEG)/tromethamine (TRIS)/meglumine solution, and two received a placebo. One dose level was tested within each group. Subject groups were dosed and evaluated sequentially, beginning with the lowest-dose group and proceeding stepwise to the highest-dose group. The next higher dose was administered only if no safety concerns arose during treatment of the preceding group.
(§2) Safety was assessed throughout the study by monitoring changes in clinical laboratory parameters (e.g., serum biochemistry, hematology, and urinalysis), 12-lead electrocardiograms, or vital signs (blood pressure, pulse rate, and temperature measurements); monitoring for occurrence of AEs); and carrying out physical examinations.

[2] = Safety and tolerability, single ascending dose (Part 1); assay type: in vivo, human; conditions: for Abdominal pain / Diarrhea / Dizziness / Flatulence / Gastrointestinal disorders / Headache / Hepatobiliary disorders / Hyperbilirubinemia / Jaundice / Nausea / Nervous system disorders / Retching / Subjects with any AE / Vomiting: 6 subjects
Method: as §1, §2

## C=C[C@@H]1C[C@]1(NC(=O)[C@@H]1C[C@@H](Oc2cc(-c3csc(NC(=O)C(C)C)n3)nc3c(Br)c(OC)ccc23)CN1C(=O)[C@@H](NC(=O)OC1CCCC1)C(C)(C)C)C(=O)O [FDV, Faldaprevir]
CYP3A4
  Effect on CYP3A4: weak inhibitory effects
[1]; 480 mg, Part 2
  Subjects with increases in total bilirubin: eight subjects
[1]; Part 2, FDV 480 mg (n = 8)
  Diarrhea and nausea: three subjects
  Headache: one subject
  Vomiting: two subjects
[2]; 120 mg, Part 1
  Subjects with increases in total bilirubin: two subjects
[2]; 240 mg, Part 1
  Subjects with increases in total bilirubin: three subjects
[2]; 480 mg, Part 1
  Subjects with increases in total bilirubin: five subjects
[2]; 800 mg, Part 1
  Subjects with increases in total bilirubin: six subjects
[2]; 1,200 mg, Part 1
  Subjects with increases in total bilirubin: six subjects
[2]; 480-mg group, Part 1
  Subjects with marked hyperbilirubinemia / indirect (unconjugated) bilirubin >3.0 mg/dL: two subjects
[2]; 1,200-mg group, Part 1
  Subjects with marked hyperbilirubinemia / indirect (unconjugated) bilirubin >3.0 mg/dL: five subjects
[2]; FDV 4 mg
  Abdominal pain: 0 n (%)
  Diarrhea: 0 n (%)
  Dizziness: 0 n (%)
  Flatulence: 0 n (%)
  Gastrointestinal disorders: 1 (16.7) n (%)
  Headache: 1 (16.7) n (%)
  Hepatobiliary disorders: 0 n (%)
  Hyperbilirubinemia: 0 n (%)
  Jaundice: 0 n (%)
  Nausea: 1 (16.7) n (%)
  Nervous system disorders: 1 (16.7) n (%)
  Retching: 0 n (%)
  Subjects with any AE: 1 (16.7) n (%)
  Vomiting: 0 n (%)
[2]; FDV 16 mg
  Abdominal pain: 0 n (%)
  Diarrhea: 0 n (%)
  Dizziness: 0 n (%)
  Flatulence: 0 n (%)
  Gastrointestinal disorders: 0 n (%)
  Headache: 0 n (%)
  Hepatobiliary disorders: 0 n (%)
  Hyperbilirubinemia: 0 n (%)
  Jaundice: 0 n (%)
  Nausea: 0 n (%)
  Nervous system disorders: 0 n (%)
  Retching: 0 n (%)
  Subjects with any AE: 0 n (%)
  Vomiting: 0 n (%)
[2]; FDV 48 mg
  Abdominal pain: 0 n (%)
  Diarrhea: 0 n (%)
  Dizziness: 1 (16.7) n (%)
  Flatulence: 0 n (%)
  Gastrointestinal disorders: 0 n (%)
  Headache: 1 (16.7) n (%)
  Hepatobiliary disorders: 0 n (%)
  Hyperbilirubinemia: 0 n (%)
  Jaundice: 0 n (%)
  Nausea: 0 n (%)
  Nervous system disorders: 1 (16.7) n (%)
  Retching: 0 n (%)
  Subjects with any AE: 3 (50.0) n (%)
  Vomiting: 0 n (%)
[2]; FDV 120 mg
  Abdominal pain: 0 n (%)
  Diarrhea: 1 (16.7) n (%)
  Dizziness: 0 n (%)
  Flatulence: 0 n (%)
  Gastrointestinal disorders: 1 (16.7) n (%)
  Headache: 0 n (%)
  Hepatobiliary disorders: 0 n (%)
  Hyperbilirubinemia: 0 n (%)
  Jaundice: 0 n (%)
  Nausea: 0 n (%)
  Nervous system disorders: 0 n (%)
  Retching: 0 n (%)
  Subjects with any AE: 1 (16.7) n (%)
  Vomiting: 0 n (%)
[2]; FDV 240 mg
  Abdominal pain: 1 (16.7) n (%)
  Diarrhea: 0 n (%)
  Dizziness: 0 n (%)
  Flatulence: 0 n (%)
  Gastrointestinal disorders: 2 (33.3) n (%)
  Headache: 2 (33.3) n (%)
  Hepatobiliary disorders: 0 n (%)
  Hyperbilirubinemia: 0 n (%)
  Jaundice: 0 n (%)
  Nausea: 1 (16.7) n (%)
  Nervous system disorders: 2 (33.3) n (%)
  Retching: 0 n (%)
  Subjects with any AE: 5 (83.3) n (%)
  Vomiting: 1 (16.7) n (%)
[2]; FDV 480 mg
  Abdominal pain: 0 n (%)
  Diarrhea: 3 (50.0) n (%)
  Dizziness: 1 (16.7) n (%)
  Flatulence: 1 (16.7) n (%)
  Gastrointestinal disorders: 4 (66.7) n (%)
  Headache: 3 (50.0) n (%)
  Hepatobiliary disorders: 2 (33.3) n (%)
  Hyperbilirubinemia: 2 (33.3) n (%)
  Jaundice: 0 n (%)
  Nausea: 2 (33.3) n (%)
  Nervous system disorders: 4 (66.7) n (%)
  Retching: 2 (33.3) n (%)
  Subjects with any AE: 6 (100) n (%)
  Vomiting: 1 (16.7) n (%)
[2]; FDV 800 mg
  Abdominal pain: 1 (16.7) n (%)
  Diarrhea: 4 (66.7) n (%)
  Dizziness: 1 (16.7) n (%)
  Flatulence: 0 n (%)
  Gastrointestinal disorders: 4 (66.7) n (%)
  Headache: 1 (16.7) n (%)
  Hepatobiliary disorders: 0 n (%)
  Hyperbilirubinemia: 0 n (%)
  Jaundice: 0 n (%)
  Nausea: 1 (16.7) n (%)
  Nervous system disorders: 1 (16.7) n (%)
  Retching: 0 n (%)
  Subjects with any AE: 4 (66.7) n (%)
  Vomiting: 0 n (%)
[2]; FDV 1,200 mg
  Abdominal pain: 0 n (%)
  Diarrhea: 3 (50.0) n (%)
  Dizziness: 1 (16.7) n (%)
  Flatulence: 1 (16.7) n (%)
  Gastrointestinal disorders: 4 (66.7) n (%)
  Headache: 0 n (%)
  Hepatobiliary disorders: 5 (83.3) n (%)
  Hyperbilirubinemia: 5 (83.3) n (%)
  Nausea: 1 (16.7) n (%)
  Nervous system disorders: 1 (16.7) n (%)
  Retching: 1 (16.7) n (%)
  Subjects with any AE: 6 (100) n (%)
  Vomiting: 0 n (%)
[2]; FDV 1,200 mg, mild transient jaundice of the skin and sclera
  Jaundice: 1 (16.7) ^b n (%)
[2]; FDV 240-mg dose group
  Severe vomiting: one subject
[2]; Part 1, all FDV dose groups
  Subjects with an AE after treatment with FDV: 26 subjects out of 48
[2]; Part 1, receiving FDV
  Subjects with AEs with a possible relationship to the study drug according to the investigator: 19 subjects
[2]; all dose groups, Part 1
  Subjects with marked hyperbilirubinemia (>3.0 mg/dL): seven subjects
[2]; during the study (both parts)
  Serious AEs: no serious AEs were reported; also recorded: No serious AEs occurred
[2]; oral solution, single doses 4–1,200 mg
  Tolerability: generally well tolerated
[2]; subjects with hyperbilirubinemia or elevated total bilirubin
  Changes in alanine transaminase, hemoglobin, or neutrophil count: no clinically relevant changes
[2]; whole study
  Changes in vital signs, ECGs, or medical examinations: No clinically relevant changes
[2]; whole study, groups not specified
  Subjects with slight elevations of direct bilirubin: 14 subjects
